Columns and labels:
Saccharomyces cerevisiae = test: antifungal activity test against Saccharomyces cerevisiae; details: tested against Saccharomyces cerevisiae
BSE or scrapie agents = details: cited from earlier work; for survival times: hamsters and mice infected intracerebrally with BSE or scrapie agents; for delaying the onset of symptoms associated with scrapie and BSE: transmissible spongiform encephalopathies scrapie and BSE
[1] = system: human immunodeficiency virus (HIV); details: cited from earlier work; for inhibition of HIV infection / HIV-1 replication: cultured cells
[2] = amphotericin B: intravenous or intrathecal routes; cited from earlier work
Leishmania = details: cited from earlier work
[3] = derivative of amphotericin B; cited from earlier work
[4] = compared with amphotericin B; cited from earlier work

SMILES: C[C@@H]1[C@H](O)[C@@H](C)/C=C/C=C/C=C/C=C/C=C/C=C/C=C/[C@H](O[C@@H]2O[C@@H](C)[C@@H](O)[C@H](N)[C@@H]2O)C[C@@H]2O[C@](O)(C[C@@H](O)C[C@@H](O)CCC[C@@H](O)C[C@@H](O)CC(=O)O[C@H]1C)C[C@H](O)[C@H]2C(=O)O [8-deoxyamphotericin B]
- antifungal activity (Saccharomyces cerevisiae): as great as that of amphotericin B

SMILES: C[C@@H]1[C@H](O)[C@@H](C)/C=C/C=C/C=C/C=C/C=C/C=C/C=C/[C@H](O[C@@H]2O[C@H](C)[C@@H](O)[C@H](N)[C@@H]2O)C[C@@H]2O[C@](O)(C[C@@H](O)C[C@@H](O)[C@H](O)CC[C@@H](O)C[C@@H](O)CC(=O)O[C@H]1C)C[C@H](O)[C@H]2C(=O)O [Amphotericin B]
- survival times (BSE or scrapie agents): prolonged the survival times
- delaying the onset of symptoms associated with scrapie and BSE (BSE or scrapie agents): showed activity in delaying the onset of symptoms
- inhibition of HIV infection / HIV-1 replication ([1]; in vitro): inhibits infection of cultured cells
- toxicity [2]: consistently associated with a number of toxic side-effects
- activity against Leishmania (Leishmania): active against Leishmania

SMILES: CNC[C@H](O)[C@@H](O)[C@H](O)[C@H](O)CO.C[C@@H]1[C@H](O)[C@@H](C)/C=C/C=C/C=C/C=C/C=C/C=C/C=C/[C@H](O[C@@H]2O[C@H](C)[C@@H](O)[C@H](NCC(=O)[C@@H](O)[C@@H]3OC(c4ccccc4)OC[C@H]3O)[C@@H]2O)C[C@@H]2O[C@](O)(C[C@@H](O)C[C@@H](O)[C@H](O)CC[C@@H](O)C[C@@H](O)CC(=O)O[C@H]1C)C[C@H](O)[C@H]2C(=O)O (stereo partly shown) [MS-8209]
- survival times (BSE or scrapie agents): prolonged the survival times
- delaying the onset of symptoms associated with scrapie and BSE (BSE or scrapie agents): showed activity in delaying the onset of symptoms
- T-cell activation via the CD3/TcR ([1]; HIV CD4+ cells): restore T-cell activation
- inhibition of HIV infection / HIV-1 replication ([1]; in vitro): inhibit HIV-1 replication in vitro in all cell types
- cytotoxicity ([1]; in vitro, all cell types): without cytotoxicity
- activity retained [3]: retains activity
- water solubility [4]: more water soluble
